From BindingDB's records for doi:10.1074/jbc.M112.399303 (Universidade Federal do Rio de Janeiro, 2014)

Columns and labels:
Assay in all cases: Diffusion Ordered Spectroscopy (DOSY)
Details in all cases: 11 °C
[1] = target: T1, Trans-sialidase [3-643,Y342H] (Trypanosoma cruzi, UniProt Q9BHJ5, Y342H)
T1 construct: 3-643
Method: (§1) Solutions of TS, TSY342H, and TSD247A in 20 mM Tris-HCl were exchanged with deuterated PBS using four cycles of concentration with Amicon Ultra (50,000 nominal molecular weight limit; Millipore) and diluted in deuterated PBS. One hundred microliters of 0.1 mM protein solution (TcTSs or BSA) was titrated with the sialoside (0.2, 0.4, 0.6, 0.8, 1.0, 1.2, 1.6, and 2.0 mM) or lacto-N-neotetraose (0.1, 0.2, 0.3, 0.4, 0.5, 0.6, 0.7, and 0.9mM) as a negative control. The solution containing 0.1 mM protein plus sialoside was further titrated with Me-Lac (0.1, 0.2, 0.3, 0.4, 0.5, 0.6, 0.7, and 0.9 mM) in Shigemi tubes. NMR spectra were obtained at a probe temperature of 293 K on a Bruker DMX 600-MHz spectrometer equipped with a 5-mm self-shielded gradient triple resonance probe. All DOSY experiments were performed with a stimulated echo using bipolar gradient pulses for diffusion, one spoil gradient, and the 3-9-19 pulse sequence with gradients for water suppression according to the Bruker pulse program stebpgp1s19. The gradient duration was set to δ = 10 ms (protein-only experiments) and 20ms (protein⋅carbohydrate complexes experiments), and the diffusion time was set to Δ = 40 ms. Gradient strength was linearly varied in 16 steps from 0.6 to 6.7 G/cm. For each of the 16 gradient amplitudes, eight transients of 192 complex data points were acquired to a 10.0-ppm spectral width. The pulse repetition delay between each scan was 3 s.

Trans-sialidase [3-643] = target: T2, Trans-sialidase [3-643] (Trypanosoma cruzi, UniProt Q9BHJ5)
T2 construct: 3-643
T2 sequence (Q9BHJ5 whole entry): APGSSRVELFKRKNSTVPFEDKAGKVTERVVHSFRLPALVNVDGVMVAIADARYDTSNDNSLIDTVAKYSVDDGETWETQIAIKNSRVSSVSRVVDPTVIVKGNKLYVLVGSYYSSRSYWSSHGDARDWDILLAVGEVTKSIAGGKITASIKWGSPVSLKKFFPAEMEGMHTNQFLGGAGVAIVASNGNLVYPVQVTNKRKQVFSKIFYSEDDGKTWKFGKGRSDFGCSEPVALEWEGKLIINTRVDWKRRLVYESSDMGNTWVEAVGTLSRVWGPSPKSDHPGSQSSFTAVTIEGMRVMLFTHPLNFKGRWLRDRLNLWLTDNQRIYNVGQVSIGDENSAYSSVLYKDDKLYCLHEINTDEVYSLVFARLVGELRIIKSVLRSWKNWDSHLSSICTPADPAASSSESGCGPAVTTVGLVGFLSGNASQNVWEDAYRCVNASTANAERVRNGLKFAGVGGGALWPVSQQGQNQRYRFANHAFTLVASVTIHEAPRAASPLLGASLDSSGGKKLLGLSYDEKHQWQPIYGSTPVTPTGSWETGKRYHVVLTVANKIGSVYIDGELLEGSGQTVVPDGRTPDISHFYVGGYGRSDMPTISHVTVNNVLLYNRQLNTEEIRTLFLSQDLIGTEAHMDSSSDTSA
Method: as §1

[2] = target: T3, Trans-sialidase [3-643,D247A] (Trypanosoma cruzi, UniProt Q9BHJ5, D247A)
T3 construct: 3-643
T3 sequence (Q9BHJ5 3-643 D249A): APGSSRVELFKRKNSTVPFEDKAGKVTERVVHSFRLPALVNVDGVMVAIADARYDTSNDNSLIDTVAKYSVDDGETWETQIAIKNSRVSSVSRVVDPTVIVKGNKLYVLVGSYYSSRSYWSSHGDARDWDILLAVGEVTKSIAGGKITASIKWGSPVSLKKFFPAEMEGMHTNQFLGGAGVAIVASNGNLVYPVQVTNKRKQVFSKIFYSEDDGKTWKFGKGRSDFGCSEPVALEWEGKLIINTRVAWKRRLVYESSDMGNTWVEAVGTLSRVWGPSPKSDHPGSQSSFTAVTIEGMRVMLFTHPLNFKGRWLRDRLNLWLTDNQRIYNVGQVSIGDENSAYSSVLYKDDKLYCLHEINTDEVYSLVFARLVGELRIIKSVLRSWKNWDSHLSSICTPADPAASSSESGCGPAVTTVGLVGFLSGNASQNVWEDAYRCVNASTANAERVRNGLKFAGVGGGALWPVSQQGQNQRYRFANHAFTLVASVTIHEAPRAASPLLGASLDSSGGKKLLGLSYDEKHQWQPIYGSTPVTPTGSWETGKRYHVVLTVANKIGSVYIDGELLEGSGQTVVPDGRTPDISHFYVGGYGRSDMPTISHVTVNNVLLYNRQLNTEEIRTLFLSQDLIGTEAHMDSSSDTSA
Method: as §1

T1 sequence (Q9BHJ5 3-643 Y344H): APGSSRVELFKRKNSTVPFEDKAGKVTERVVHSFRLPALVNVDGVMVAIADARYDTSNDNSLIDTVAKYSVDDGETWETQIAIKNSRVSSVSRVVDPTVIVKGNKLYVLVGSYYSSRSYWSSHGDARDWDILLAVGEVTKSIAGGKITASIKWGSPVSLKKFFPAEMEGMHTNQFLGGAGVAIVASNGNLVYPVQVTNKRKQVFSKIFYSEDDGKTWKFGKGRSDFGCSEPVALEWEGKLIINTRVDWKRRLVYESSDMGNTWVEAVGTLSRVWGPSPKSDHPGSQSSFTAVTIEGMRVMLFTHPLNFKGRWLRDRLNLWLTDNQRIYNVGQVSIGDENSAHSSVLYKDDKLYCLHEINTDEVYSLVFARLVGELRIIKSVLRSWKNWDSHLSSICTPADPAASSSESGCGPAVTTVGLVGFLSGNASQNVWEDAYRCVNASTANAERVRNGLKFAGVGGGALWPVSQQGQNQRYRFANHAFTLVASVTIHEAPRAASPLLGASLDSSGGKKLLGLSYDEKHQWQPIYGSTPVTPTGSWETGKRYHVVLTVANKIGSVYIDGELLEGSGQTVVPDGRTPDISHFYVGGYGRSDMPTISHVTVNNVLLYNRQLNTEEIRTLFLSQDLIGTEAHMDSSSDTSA

SMILES | Kd [1] [µM] | Kd (Trans-sialidase [3-643]) [µM] | Kd [2] [µM]
CO[C@@H]1O[C@H](CO)[C@@H](O[C@@H]2O[C@H](CO)[C@H](O)[C@H](O)[C@H]2O)[C@H](O)[C@H]1O [CHEBI:610092] | 52 | 15 | 
COC1OC(CO)C(O)C(SC2(C(=O)O)CC(O)C(NC(C)=O)C([C@H](O)[C@H](O)CO)O2)C1O (stereo not given in full) [NeuSGal] |  | 456 | 
CC(=O)NC1C(O)CC(OC2C(O)C(CO)OC(OC3C(CO)OC(O)C(O)C3O)C2O)(C(=O)O)OC1[C@H](O)[C@H](O)CO (stereo partly drawn) [α2,3'-sialyllactose] | 234 |  | 107
